# Test results from PMC10983001, “Development of Cytotoxic GW7604-Zeise’s Salt Conjugates as Multitarget Compounds with Selectivity for Estrogen Receptor- Positive Tumor Cells” (Journal of Medicinal Chemistry, 2024).
# Legend:
# [1] = system: MCF-7 cells; test: MTT assay of metabolic activity, MCF-7; type: cell-based, human; conditions: 72 h, MTT; read-out: IC50 MCF-7
# Method: The GW7604-Alk-PtCl3 complexes (with exclusion of GW7604-Prop-PtCl3) were investigated for cytotoxic effects in SKBr3 (ER-negative, COX-2-positive, Figure 6), MCF-7 (ERα-positive, COX-negative, Figure 6), and noncancerous TSA-201 (human embryonal kidney) cells at concentrations of 10–30 μM using an established MTT (3-(4,5-dimethylthiazol-2-yl)-2,5-diphenyltetrazolium bromide) assay.[60],[69]
# After incubation for 72 h, the amounts of surviving, metabolically active cells were quantified based on their ability to transform the water-soluble yellow dye MTT to a purple formazan, which can be analyzed by UV–vis spectroscopy.
# The exponentially growing cells were seeded at a density of 1750 (MCF-7), 2000 (SKBr3), and 1250 (TSA-201) cells/well into clear flat-bottom 96-well plates in triplicate. Following 24 h of incubation at 37 °C in a humidified atmosphere (5% CO2/95% air), the compounds [freshly prepared stock solutions in DMF, diluted with DMEM to the desired concentration (final DMF concentration of 0.1% (v/v))] were added to reach the indicated concentrations. After another 72 h of incubation, the cellular metabolic activity was measured employing an MTT assay. By adding predissolved MTT reagent in PBS at a final concentration of 0.5 mg/mL, the metabolic activity can be determined via an enzymatic conversion to a purple formazan salt. After 3 h, the medium was aspirated, and 200 μL of DMSO was added to dissolve the formed formazan crystals. The absorbance was measured at 570 and 690 nm (turbidity assessment) using an EnSpire plate reader (PerkinElmer, Waltham, MA, USA). Solvent-treated cells without a compound served as the positive control. Metabolic activity was calculated by the following equation [drawing 1]
# [2] = system: nuclei of MCF-7 cells; test: Nuclear uptake (platinum by HR-CS-AAS), MCF-7; type: cell-based, human; conditions: MCF-7, 20 μM, 24 h; pmol complex/mg protein
# Method: (§1) Fluorescence in the nuclei is not detectable. Therefore, the nuclei were analyzed for their platinum content using HR-CS-AAS.[25]
# (§2) After thawing of the cell/nuclei pellets, they were resuspended in ultrapure water (Siemens LaboStar, Günzburg, Germany; 300 μL) and lyzed with a sonotrode (Bandelin Sonoplus, Berlin, Germany; parameters 20 s, 9 cycles, 80% power). Graphite furnace (GF) AAS was used to quantify the lysates concerning their content of platinum (λ = 265.9450 nm). For this purpose, a contrAA 700 High-Resolution-Continous Source AAS (Analytik Jena, Jena, Germany) was employed, while atomization took place by electrothermal heating of graphite tubes with an inserted platform (Analytik Jena, Jena, Germany). […] The spectrometer was monitored with the ASpect CS software, version 2.3.1.0 (Analytik Jena, Jena, Germany). For all runs, the mean integrated absorbance was determined after three injections of each standard or sample. […] Each cell/nuclei lysate was quantified concerning its protein content following the method of Bradford[71] in order to express the uptake as the amount of compound (pmol) in the lysate relative to its protein mass (mg). […] All standards and lysates were measured in duplicate. After incubating for 5 min at rt, the absorbance (λ = 595 nm) was read on a microplate reader (Tecan Safire 2, Männedorf, Switzerland). […]
# [3] = system: nuclei of SKBr3 cells; test: Nuclear uptake (platinum by HR-CS-AAS), SKBr3; type: cell-based, human; conditions: SKBr3, 20 μM, 24 h
# Method: as §1, §2
# [4] = system: 5′-guanosine monophosphate (5′-GMP); test: Reaction with 5′-GMP (ESI-HR-MS); type: binding; conditions: 100 μM, MeOH/water 80/20, 5 min
# Method: Thereto, GW7604-Pent-PtCl3 was incubated in a 1:1 ratio with 5′-GMP in a MeOH/water mixture [80/20, (v/v)], and the reaction products were identified by ESI-HR-MS after 5 min and 24 h.
# GW7604-Pent-PtCl3 dissolved in MeOH was combined with an aqueous solution of 5′-GMP (disodium salt) to get an [80/20 (v/v)] solution with a complex concentration of 1 mM and a complex/5′-GMP proportion of 1/1.1. The mixture was diluted %1/10 (v/v)] with MeOH/water [80/20 (v/v)], reaching a final complex concentration of 100 μM, and ESI-HR-MS spectra were recorded after 5 min and 24 h. The obtained spectra were analyzed with MestreNova v14.
smiles,measurement,setting,value
"CCC(=C(c1ccc(O)cc1)c1ccc(C=CC(=O)OCCC[CH]2[CH2][Pt-]2([Cl])([Cl])[Cl])cc1)c1ccccc1.[K+] (mixture of isomers) [GW7604-Pent-PtCl3, Potassium trichlorido[η^2-(pent-4-en-1-yl (E)-3-(4-((E/Z)-1-(4-hydroxyphenyl)-2-phenylbut-1-en-1-yl)phenyl)acrylate)]platinate(II)]",IC50,[1],19.6 µM
same,platinum content in the nuclei,[2],145 pmol/mg
same,platinum content in the nuclei,[3],96 pmol/mg
same,adduct formation with 5′-GMP,[4],5′-GMP-platinum adducts were present
